Measurements: US8324216B2, “Substituted piperazines” (Chemocentryx, Inc., priority 2002, dated 2012)

What was measured:
[1] = system: LPS induced synovial inflammation in rabbit knee; assay: Rabbit model of destructive joint inflammation (intra-articular LPS); format: in vivo, female New Zealand rabbits; conditions: for synovium inflammation score: 16 h, score 1 minimal, 2 mild, 3 moderate, 4 moderate-marked, vehicle 3
Source text: This study design mimics the destructive joint inflammation seen in arthritis. Intra-articular injection of LPS causes an acute inflammatory response characterized by the release of cytokines and chemokines, many of which have been identified in rheumatoid arthritic joints. Marked increases in leukocytes occur in synovial fluid and in synovium in response to elevation of these chemotactic mediators. Selective antagonists of chemokine receptors have shown efficacy in this model (see Podolin, et al., J. Immunol. 169(11):6435-6444 (2002)).
Sixteen hours after the LPS injection, knees were lavaged and cells counts performed. Beneficial effects of treatment were determined by histopathologic evaluation of synovial inflammation. The following inflammation scores were used for the histopathologic evaluation: 1—minimal, 2—mild, 3—moderate, 4—moderate-marked.

[2] = system: arthritis induced clinical ankle swelling; assay: Rat model of collagen induced arthritis (17 day developing type II collagen arthritis); format: in vivo, female Lewis rats; conditions: 25 mg/kg sub-cutaneous daily day 0 till day 17
Procedure: A 17 day developing type II collagen arthritis study was conducted to evaluate the effects of compound 1.028 on arthritis induced clinical ankle swelling. Rat collagen arthritis is an experimental model of polyarthritis that has been widely used for preclinical testing of numerous anti-arthritic agents (see Trentham, et al., J. Exp. Med. 146(3):857-868 (1977), Bendele, et al., Toxicologic Pathol. 27:134-142 (1999), Bendele, et al., Arthritis Rheum. 42:498-506 (1999)). The hallmarks of this model are reliable onset and progression of robust, easily measurable polyarticular inflammation, marked cartilage destruction in association with pannus formation and mild to moderate bone resorption and periosteal bone proliferation. Female Lewis rats (approximately 0.2 kilograms) were anesthetized with isoflurane and injected with Freund's Incomplete Adjuvant containing 2 mg/mL bovine type II collagen at the base of the tail and two sites on the back on days 0 and 6 of this 17 day study. Compound 1.028 was dosed daily in a sub-cutaneous manner from day 0 till day 17 at a dose of 25 mg/kg and a volume of 1 mL/kg in the following vehicle (20% N,N-dimethylacetamide, 75% corn oil, 5% Tween-80). Caliper measurements of the ankle joint diameter were taken, and reducing joint swelling was taken as a measure of efficacy.

Row | SMILES | synovium inflammation score ([1]; dose 1=50 μM intra-articular with LPS 10 ng) | synovium inflammation score ([1]; dose 2=100 μM intra-articular with LPS 10 ng) | Inhibition of the inflammatory response ([1]; rabbit LPS intra-articular model) | Inhibition of arthritis induced ankle swelling [2] | change in joint diameter day9-day17 ([2]; vehicle 15.7% +/− 2.0%, normal 0% +/− 0.3%)
1 | Cc1c(Cl)c(C(F)(F)F)nn1CC(=O)N1CCN(c2ccc(F)cc2)CC1 [CCX-105] | 2 | 1 | significantly and specifically inhibit the inflammatory response | – | –
2 | COc1cc(N2CCN(C(=O)Cn3nc(C(F)(F)F)c(Cl)c3C)CC2)c(Cl)cc1Cl [Compound 1.028] | – | – | – | significantly and specifically inhibit the arthritis induced ankle swelling | 9.1% +/− 1.8%
